What was measured:
Type in all cases: cell-based
CRAC channel [1] = target: T1, CRAC channel (Homo sapiens, UniProt Q13586); experiment: CRAC channel activity as measured by intracellular calcium influx; conditions: for effect on intracellular calcium influx and toxicity in relation to CRAC channel inhibition: DCPA metabolites
Text: The metabolism of DCPA by acylamidase produces DCA as mentioned above. DCA is then metabolized to N—OH-DCA and 6-OH-DCA. Both N—OH-DCA and 6-OH-DCA contribute to the systemic toxicity associated with in vivo administration of DCPA. […] Thus, the CRAC channel inhibitory activity of DCPA is not attributable to any of these toxic metabolites. Given that the CRAC channel inhibition associated with DCPA was not due to the more toxic metabolites, the present invention discloses haloanilide compositions of Formula I, and salts thereof that are not metabolized to DCA but that have similar CRAC channel inhibitory qualities of DCPA:
[drawing 7] wherein X is either chlorine or bromine, Y is either hydrogen or an alkyl group having a carbon chain length from 1 to 5 carbon atoms, and R is an alkyl group having a carbon chain length from 1 to 5 carbon atoms, except wherein X is not chlorine when Y is hydrogen and R is an ethyl group. Synthesis routes for N-(3,4-dibromophenyl)propanamide [also referred to as “DBPA” or “N-(3,4-bibromophenyl)propionamide”], N-(3,4-dichlorophenyl)-N-methylpropanamide [also referred to as “N-Methyl Propanil”; or “N-Methyl-DCPA”; or “NMP”; or “NM Propanil”; or “N-(3,4-dichlorophenyl)-N-methylpropionamide”; or “N,N-Methyl, Propyl-CA” (CA=carboxamide)], 3,4-dichloro-N-methyl-N-isobutyramide [also referred to as “N-(3,4-dichlorophenyl)-N,2-dimethylpropanamide”; or “DNMI”], N-(3,4-dichlorophenyl)-2-dimethylpropanamide, N-(3,4-dichlorophenyl)isobutyramide [also referred to as “DNI” or “N-Isobutyl-CA” (CA=carboxamide)], and N-(3,4-dichlorophenyl)-N-methylisobutyramide [also referred to as “N,N-Me, Isobutyl-CA” (CA=carboxamide)]. Each of the haloanilide compositions of this invention have undergone in vitro toxicity testing on Jurkat cells—this is a T cell line that is sensitivity to toxic effects and thus, was used to determine the effect of the compounds on viability. Each of the compositions of Formula I are capable of inhibiting CRAC channel activity as measured by intracellular calcium influx. […] FIGS. 4 and 5 show chemical structures of preferred haloanilide compositions of this invention.

[2] = target: T2, STIM I/Orai I interaction (Homo sapiens, UniProt Q13586); experiment: 2-APB-induced STIM I ct translocation to plasma membrane; conditions: 2-APB 50 μM, as early as 5 seconds
T2 construct: the cytosolic fragment of STIM I (STIM 1 ct); expressed in transfected cells
T2 sequence (Q13586 235-685 limits assumed): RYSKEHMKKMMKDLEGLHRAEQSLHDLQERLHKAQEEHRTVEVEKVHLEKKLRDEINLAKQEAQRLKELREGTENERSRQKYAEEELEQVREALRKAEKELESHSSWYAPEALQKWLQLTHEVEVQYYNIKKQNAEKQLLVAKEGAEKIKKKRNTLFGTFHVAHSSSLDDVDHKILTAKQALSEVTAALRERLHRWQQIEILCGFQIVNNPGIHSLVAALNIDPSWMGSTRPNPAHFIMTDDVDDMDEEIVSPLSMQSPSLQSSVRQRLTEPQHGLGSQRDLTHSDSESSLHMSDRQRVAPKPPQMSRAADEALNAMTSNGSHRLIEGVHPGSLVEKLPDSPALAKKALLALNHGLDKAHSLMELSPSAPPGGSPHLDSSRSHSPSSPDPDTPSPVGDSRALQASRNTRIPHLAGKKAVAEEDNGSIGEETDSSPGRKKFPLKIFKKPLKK
Description: HEK293 cells, maintained in DMEM with 10% FBS, were transfected with YFP-STIM I using Lipofectamine 2000 (Invitrogen, Carlsbad, Calif.) for 5 h (37° C.; 5% CO2) followed by a 24-h recovery. Cells were placed in 140 mM NaCl, 5 mM KCl, 1 mM MgCl2, 10 mM glucose, 15 mM HEPES, 0.1% BSA, 2 mM CaCl2 and analyzed by confocal microscopy for STIM I puncta formation using a Nikon phase-fluorescence microscope with CCD detectors (Diagnostic instruments, Sterling Heights, Mich.). Phase or transmitted light microscopy used 10-40× objectives and red, green, and blue filters to assemble color images. Fluorescence images used 1.4 NA 40× oil objectives. Red fluorescence used excitation at 530-560 nm, a 575 nm dichroic minor, and 580-650 nm emission filter. Transfection data were analyzed using Nikon NIS Elements Imaging Software. The effect of DCPA on STIM I/Orai I association was determined in wild-type HEK293 cells transfected with STIM I-YFP as described in Wang Y, Deng X, Zhou Y, Hendron E, Mancarelia S, Ritchie M F, Tang X D, Baba Y, Kurosaki T, Mori Y, Soboloff J, Gill DL, “STIM protein coupling in the activation of Orai channels”, Proc Natl Acad Sci USA, Vol. 106, pages 7391-7396, 2009. Experiments were performed on a Leica DMI 6000B fluorescence microscope controlled by Slidebook Software (Intelligent Imaging Innovations, Denver, Colo.).

[3] = tested on: human monocytes differentiating into osteoclasts; experiment: Human osteoclast differentiation in vitro (multinucleation, TRAP); conditions: 10 and 100 μM, 8 days after RANKL
Description: Human monocytes were isolated from normal buffy coat cells (60-80 ml) obtained with approval of institutional review boards by separation from donor blood, the white-cell depleted blood retained for clinical use. Human monocyte culture and differentiation were as reported (see, Yaroslayskly B B, Zhang Y, Kalla S E, Garcia P V, Sharrow A C, Li Y, Zaidi M, Wu C, Blair H C, “NO-dependent osteoclast motility: Reliance on cGMP-dependent protein kinase I and VASP”, J Cell Sci I, Vol. 18, pages 5479-5487, 2005). Briefly, human monocytes cells were isolated from buffy coat on ficoll lymphocyte separation media and cultured at ˜6×10^5 cells per cm^2 in monocyte maintenance medium, Dulbecco's modified essential medium (DMEM) with 20 ng/ml of human m-CSF and 10% FBS, for 24 hours (h). After 24 h in culture, the medium was changed to osteoclast differentiation medium containing in addition of human 50 ng/ml of RANKL, with the additional inhibitors or activators as specified in results. Human osteoclast cultures were generally maintained for a minimum of 7 days before analysis, or longer times as specified in results.
The effect of DCPA on human osteoclast differentiation 8 days after addition of RANKL was evaluated.

[4] = tested on: Store-Operated Calcium Entry (SOCE); experiment: Store-Operated Calcium Entry (SOCE) inhibition dose response (FIG. 10)
CRAC channel [5] = target: T1, CRAC channel; experiment: CRAC channel activity by Fura-2 fluorescence in Jurkat cells after thapsigargin; design: endogenous in cells; host or cells: Jurkat cells; conditions: 100 uM, 10 minutes before thapsigargin
Description: Ratiometric imaging of intracellular Ca^2+ using fura-2 was as described (see, Zhou et al., 2009 above). Briefly, cells on coverslips, in cation safe solution (107 mM NaCl, 7.2 mM KCl, 1.2 mM MgCl2, 11.5 mM glucose, 20 mM HEPES-NaOH, pH 7.2) were loaded with fura-2 acetoxymethyl ester (2 μM) for 30 min at 24° C. Cells were washed and fluorescent probe was allowed to de-esterify for 30 min. From signal remaining after saponin permeabilization, ˜85% of the dye was confined to the cytoplasm (see, Ma H-T, Patterson R L. van Rossum D B. Birnbaumer L, Mikoshiba K, Gill D L, “Requirement of the inositol trisphosphate receptor for activation of store-operated Ca^2+ channels”, Science, Vol. 287, pages 1647-1651, 2000). Ca^2+ measurements were made using a Leica DMI 6000B fluorescence microscope controlled by Slidebook Software. Fluorescence emission at 505 nm was monitored while alternating between 340 and 380 nm excitation wavelengths at a frequency of 0.67 Hz; intracellular Ca^2+ measurements are shown as 340/380 nm emission ratios obtained from groups (35-45) of single cells. Measurements shown are representative a minimum of three independent experiments.
N-(3,4-dibromophenyl)propanamide]. Jurkat cells, a T cell line that is very sensitive to DCPA, was cultured with the indicated compounds, DCPA, DBPA, and ethanol (EtOH). CRAC channel activity was monitored using Fura-2 fluorescence using standard known techniques. Cells were incubated in each composition at 100 uM for 10 minutes prior to addition of the SERCA inhibitor thapsigargin (Tg) to induce SOCe. Decreased CRAC channel activity is clearly evident with DCPA and DBPA.
Jurkat cells, a T cell line that is very sensitive to DCPA, was cultured with the indicated compositions of the present invention, namely, DNI, NM Propanil, and DNMNI. CRAC channel activity was monitored using Fura-2 fluorescence using standard known techniques. Cells were incubated in each composition at 100 uM for 10 minutes prior to addition of the SERCA inhibitor thapsigargin (Tg) to induce SOCe. Decreased CRAC channel activity is clearly evident with each of the compositions of the present invention. […] Each of the compositions of this invention achieve the results achieved with the known DCPA but without the burden of toxicity of DCPA that would accompany further metabolism of DCPA.

T1 sequence (Q13586 23-685): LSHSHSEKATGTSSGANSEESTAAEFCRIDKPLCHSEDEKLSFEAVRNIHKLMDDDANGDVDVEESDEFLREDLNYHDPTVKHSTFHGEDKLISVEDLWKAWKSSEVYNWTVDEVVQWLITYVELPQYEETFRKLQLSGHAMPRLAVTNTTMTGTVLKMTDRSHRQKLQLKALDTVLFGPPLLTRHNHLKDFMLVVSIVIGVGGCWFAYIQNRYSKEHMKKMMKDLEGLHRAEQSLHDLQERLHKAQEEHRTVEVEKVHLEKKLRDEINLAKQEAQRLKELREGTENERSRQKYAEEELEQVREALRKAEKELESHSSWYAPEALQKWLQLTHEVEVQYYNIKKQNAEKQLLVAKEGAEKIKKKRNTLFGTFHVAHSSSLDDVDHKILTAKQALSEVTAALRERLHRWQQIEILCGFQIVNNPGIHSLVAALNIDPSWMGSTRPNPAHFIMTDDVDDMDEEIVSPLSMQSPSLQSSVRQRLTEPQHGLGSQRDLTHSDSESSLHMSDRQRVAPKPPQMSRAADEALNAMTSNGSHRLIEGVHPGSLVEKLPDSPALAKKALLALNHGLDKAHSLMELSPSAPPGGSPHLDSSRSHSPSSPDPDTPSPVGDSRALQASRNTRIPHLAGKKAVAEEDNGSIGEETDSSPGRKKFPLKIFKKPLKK

Structure (SMILES) | CRAC channel activity (CRAC channel [5]) | effect on intracellular calcium influx and toxicity in relation to CRAC channel inhibition (CRAC channel [1]) | further results
Nc1cc(Cl)c(Cl)cc1O [6-OH-DCA] |  | not associated with CRAC channel inhibition | 
Nc1ccc(Cl)c(Cl)c1 [DCA, dichloroaniline] |  | not associated with CRAC channel inhibition | 
NCCOB(c1ccccc1)c1ccccc1 [2-APB, 2-aminoethoxydiphenylborate] |  |  | translocation of STIM I ct towards the PM [2]: significant translocation
CCC(=O)Nc1ccc(F)c(F)c1 [DFPA, 3,4-difluoropropioanilide] |  |  | number of multinucleated cells [3]: no significant effect
ONc1ccc(Cl)c(Cl)c1 [N—OH-DCA] |  | not associated with CRAC channel inhibition | 
CCC(=O)Nc1ccc(Br)c(Br)c1 [DBPA, N-(3,4-dibromophenyl)propanamide] | Decreased |  | 

More lines, main results first:

CRAC channel activity (CRAC channel [5]) | Structure (SMILES) | effect on intracellular calcium influx and toxicity in relation to CRAC channel inhibition (CRAC channel [1]) | further results
Decreased | CCC(=O)N(C)c1ccc(Cl)c(Cl)c1 [NMP, N-(3,4-dichlorophenyl)-N-methylpropanamide] |  | IC50 ([4]; FIG. 10B): 104 µM; dose response compared with known DCPA ([4]; doses 3 μM to 1 mM, FIG. 10A): at least equal; inhibition of CRAC channel activity as measured by intracellular calcium influx (CRAC channel [1]): effective at lower concentrations
Decreased | CC(C)C(=O)N(C)c1ccc(Cl)c(Cl)c1 [DNMNI, N-(3,4-dichlorophenyl)-N-methylisobutyramide] |  | 
Decreased | CC(C)C(=O)Nc1ccc(Cl)c(Cl)c1 [DNI, N-(3,4-dichlorophenyl)isobutyramide] |  | 

Source: patent publication US10682320B2, “Method for inhibiting osteoclast development” (West Virginia University, priority 2012, dated 2020)
